Eight compounds from PubChem BioAssay (NCI) can be followed below.

Among the test systems are HCC-2998 colon; HCT-15 colon; SF-539 CNS; T-47D breast; UACC-257 melanoma; SF-268 CNS; HS 578T breast; MDA-MB-435; SNB-75 CNS; SK-MEL-28 melanoma.
Holding throughout (experiment): DTP human tumour cell line panel, 48 h

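Values below derive from 48-hour exposures of cells grown in 96-well plates, with endpoints linearly interpolated between the two concentrations bracketing the appropriate inhibition level. Abbreviation: GI50, concentration required for 50% inhibition of growth. TGI: total growth inhibition.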

Turning to `CCc1nc2cc(F)c(/C=C/C(=O)NO)cc2c(=O)n1CCc1ccccc1`, the concentration for 50% growth inhibition (GI50) (as a rule, the concentration at which growth is held to half of that of the control) was 0.381 µM in the assay with HCC-2998 colon; 0.36 µM with HCT-15 colon; 0.341 µM in the assay on SF-539 CNS; 0.22 µM with T-47D breast; 0.216 µM in the assay with UACC-257 melanoma; 0.355 µM in the assay on SF-268 CNS. Besides, the GI50 with HS 578T breast is 0.489 µM; with MDA-MB-435 it was 0.445 µM; with SNB-75 CNS it was 0.356 µM; in the assay with SK-MEL-28 melanoma, 0.381 µM. Also, the concentration for total growth inhibition (TGI) (commonly the concentration at which net growth stops) stood at 12.7 µM in the assay with HCC-2998 colon; 18.6 µM with HCT-15 colon; 3.36 µM in the assay with SF-539 CNS; 0.853 µM in the assay on T-47D breast; 0.72 µM with UACC-257 melanoma; 10.1 µM in the assay on SF-268 CNS. Moreover, the TGI with HS 578T breast is 26.9 µM; in the assay with MDA-MB-435 it was 11.5 µM; with SNB-75 CNS it was 13.8 µM; in the assay on SK-MEL-28 melanoma it was 11.5 µM.

In the case of `COc1ccc(C2=C(Cl)c3cc(OC)c(OC)cc3C2Cl)cc1` (stereo not given), the TGI in the assay with HCC-2998 colon came to 28.1 µM; with HCT-15 colon, 30.6 µM; in the assay with SF-539 CNS, 30.8 µM; in the assay on T-47D breast, 35.1 µM; with UACC-257 melanoma, 39.6 µM; in the assay with SF-268 CNS, 36 µM. Besides, the TGI with HS 578T breast stood at 76.5 µM; with MDA-MB-435 it was 28.5 µM; with SNB-75 CNS, 8.46 µM; with SK-MEL-28 melanoma, 31.8 µM.

As for `CCOC(=O)C1CCN(S(=O)(=O)/N=C2/NC(=O)NC2=C(Cl)Cl)CC1`, the GI50 is 2.05 µM with HCC-2998 colon; 1.82 µM with HCT-15 colon; 0.525 µM in the assay on SF-539 CNS; 4.41 µM in the assay with T-47D breast; 2.38 µM with UACC-257 melanoma; 1.93 µM in the assay on SF-268 CNS. In addition, the GI50 with HS 578T breast is 9.14 µM; in the assay with MDA-MB-435, 1.93 µM; in the assay with SNB-75 CNS it was 2.86 µM; in the assay on SK-MEL-28 melanoma it was 1.8 µM. Moreover, the TGI with HCC-2998 colon was 3.67 µM; in the assay on HCT-15 colon, 3.56 µM; with SF-539 CNS, 4.44 µM; in the assay with T-47D breast it was 32.9 µM; with UACC-257 melanoma it was 7.24 µM; in the assay on SF-268 CNS it was 7.43 µM. Besides, the concentration for total growth inhibition (TGI) with HS 578T breast was 65.3 µM; with MDA-MB-435, 4.66 µM; with SNB-75 CNS it was 14.1 µM; in the assay on SK-MEL-28 melanoma, 3.51 µM.

As to `O=C(Nc1n[nH]c2cc(-c3ccccc3)ccc12)C1CC1`, the GI50 is 8.07 µM in the assay with HCC-2998 colon; 4.03 µM with HCT-15 colon; 13 µM in the assay on SF-539 CNS; 17.8 µM in the assay on T-47D breast; more than 25 µM in the assay on UACC-257 melanoma; more than 21.2 µM in the assay with SF-268 CNS. For the same compound, the GI50 in the assay with HS 578T breast was 18.9 µM; with MDA-MB-435 it was 0.721 µM; with SNB-75 CNS, more than 20.9 µM; in the assay on SK-MEL-28 melanoma, more than 22.1 µM. Further, the total growth inhibition concentration (TGI) in the assay with HCC-2998 colon, with HCT-15 colon, in the assay with SF-539 CNS, in the assay on T-47D breast, in the assay with UACC-257 melanoma and with SF-268 CNS was more than 25 µM each time. Besides, the TGI in the assay with HS 578T breast, with MDA-MB-435, in the assay with SNB-75 CNS and with SK-MEL-28 melanoma was more than 25 µM in each case.

For the compound `O=C1c2cccnc2-c2nc(-c3ccc(Cl)cc3)cc3c2c1nc1ccccc13`, the GI50 is more than 100 µM in the assay on HCC-2998 colon; 23.9 µM in the assay on HCT-15 colon; 59.8 µM in the assay with SF-539 CNS; more than 100 µM in the assay on T-47D breast; 57.7 µM with UACC-257 melanoma; 71.2 µM in the assay on SF-268 CNS. Further, the GI50 in the assay on HS 578T breast is 29 µM; with MDA-MB-435, 22.5 µM; in the assay on SNB-75 CNS, 57.9 µM; in the assay on SK-MEL-28 melanoma it was 34.7 µM. Moreover, the concentration for total growth inhibition (TGI) with HCC-2998 colon, in the assay with HCT-15 colon, in the assay on SF-539 CNS, with T-47D breast, with UACC-257 melanoma and in the assay with SF-268 CNS was more than 100 µM in each case. Further, the TGI in the assay with HS 578T breast is more than 100 µM; in the assay with MDA-MB-435, 86.4 µM; with SNB-75 CNS, more than 100 µM; in the assay with SK-MEL-28 melanoma, more than 100 µM.

Regarding `CCc1nc(N)nc(N)c1-c1ccc(NC)c([N+](=O)[O-])c1`, the TGI with HCC-2998 colon was 65.7 µM; in the assay on HCT-15 colon, more than 100 µM; in the assay on SF-539 CNS, more than 100 µM; with T-47D breast it was more than 100 µM; in the assay with UACC-257 melanoma, more than 100 µM; in the assay with SF-268 CNS it was more than 100 µM. The TGI with HS 578T breast, with MDA-MB-435, with SNB-75 CNS and in the assay on SK-MEL-28 melanoma was more than 100 µM in each case.

As to `N#Cc1cc(-c2cc3ccccc3o2)oc1N`, the GI50 in the assay on HCC-2998 colon was 4.92 µM; with HCT-15 colon, 3.35 µM; in the assay on SF-539 CNS it was 3.89 µM; with T-47D breast, 3.89 µM; in the assay on UACC-257 melanoma it was 3.8 µM; with SF-268 CNS, 4.73 µM. For the same compound, the GI50 was 0.401 µM in the assay with HS 578T breast, 3.69 µM in the assay on MDA-MB-435, 3.61 µM in the assay with SNB-75 CNS and 6.54 µM with SK-MEL-28 melanoma. In addition, the TGI turned out to be 18.9 µM in the assay on HCC-2998 colon; 13 µM in the assay with HCT-15 colon; 14.5 µM in the assay with SF-539 CNS; 59 µM in the assay with T-47D breast; 74.1 µM in the assay on UACC-257 melanoma; 20.1 µM with SF-268 CNS. Besides, the concentration for total growth inhibition (TGI) was 3.41 µM in the assay on HS 578T breast, 16.9 µM in the assay with MDA-MB-435, 15.5 µM in the assay with SNB-75 CNS and 19.7 µM with SK-MEL-28 melanoma.

For `NC(=O)c1cc(Cl)ccc1NC(=O)/C=C/c1ccccc1`, the GI50 is 0.487 µM with HCC-2998 colon; 2.38 µM with HCT-15 colon; 2.05 µM with SF-539 CNS; 4.8 µM in the assay with T-47D breast; more than 38.8 µM in the assay on UACC-257 melanoma; 5.96 µM in the assay with SF-268 CNS. Moreover, the GI50 is 3.17 µM in the assay with HS 578T breast, 0.618 µM with MDA-MB-435, 3.16 µM with SNB-75 CNS and 2.58 µM in the assay with SK-MEL-28 melanoma. Also, the TGI is 2.79 µM with HCC-2998 colon; more than 100 µM with HCT-15 colon; 5.53 µM in the assay on SF-539 CNS; more than 100 µM in the assay on T-47D breast; more than 100 µM in the assay with UACC-257 melanoma; more than 60.4 µM in the assay with SF-268 CNS. The TGI in the assay with HS 578T breast was more than 24.5 µM; in the assay with MDA-MB-435 it was 3.53 µM; in the assay with SNB-75 CNS, more than 23.7 µM; in the assay on SK-MEL-28 melanoma, more than 100 µM.
